The target in data set [1] is 5-hydroxytryptamine receptor 2B (Homo sapiens, UniProt P41595). The experiment in a line: GPCRScan assay: inhibition of 5-HT2B. Set-up: radioligand conc. used [nm] 1.0 – 2.0, parental cells stable HEK.
Data set [2] has as its target Kappa-type opioid receptor (Homo sapiens, UniProt P41145). The data set can be described thus: GPCRScan assay: inhibition of KOR. Set-up: radioligand conc. used [nm] 0.6 – 1.2, parental cells stable HEK.
Data set [3] deals with Alpha-2B adrenergic receptor (Homo sapiens, UniProt P18089). The data set can be described thus: GPCRScan assay: inhibition of Alpha2B. Set-up: radioligand conc. used [nm] 1.5 – 2.0, parental cells HEKT.
In data set [4] the target is Sigma non-opioid intracellular receptor 1 (Homo sapiens, UniProt Q99720). The experiment in a line: GPCRScan assay: inhibition of Sigma 1. Also noted: radioligand conc. used [nm] 4.0 – 5.0, parental cells HEKT.
In data set [5] the target is 5-hydroxytryptamine receptor 1D (Homo sapiens) (UniProt P28221). The conditions noted are these: Compound concentration 10.0 uM.
For data set [6], the target named is Alpha-2C adrenergic receptor (Homo sapiens) (UniProt P18825). The conditions noted are these: Compound concentration 10.0 uM.
Data set [7] has as its target Serine/threonine-protein kinase DCLK1 (Homo sapiens, UniProt O15075). The data set can be described thus: Inhibition of DCLK1 at compound concentration of 10.0 uM using the ScanMax (DiscoverX).
Data set [8] deals with Adenosine receptor A1 (Homo sapiens) (UniProt P30542). The data set can be described thus: Adenosine A1 receptor (h) CEREP ligand profiling. The conditions noted are these: Compound concentration 10.0 uM.
For data set [9], the target named is Adrenergic receptor alpha-1 (Homo sapiens) (UniProt P35348+P25100+P35368). The experiment in a line: alpha1-adrenoceptor (non-selective) CEREP ligand profiling. The conditions noted are these: Compound concentration 10.0 uM. Type of data set: protein assay.
In data set [10] the target is Vasopressin V1a receptor (Homo sapiens) (UniProt P37288). The data set can be described thus: Vasopresine V1a receptor (h) CEREP ligand profiling. The conditions noted are these: Compound concentration 10.0 uM.
For data set [11], the target named is Beta-1 adrenergic receptor (Homo sapiens) (UniProt P08588). The data set can be described thus: beta1-adrenoceptor (h) CEREP ligand profiling. The conditions noted are these: Compound concentration 10.0 uM.
Data set [12] concerns the target Type-1 angiotensin II receptor (Homo sapiens) (UniProt P30556). The data set can be described thus: Angiotensin AT1 receptor (h) CEREP ligand profiling. The conditions noted are these: Compound concentration 10.0 uM.
Data set [13] deals with GABA-A receptor; anion channel (Homo sapiens) (UniProt P14867+P47870+P18507+P28472+P48169+Q99928+Q9UN88+P34903+O00591+O14764+Q8N1C3+P18505+P78334+P47869+P31644+Q16445). The data set can be described thus: Benzodiazepine (central) CEREP ligand profiling. Type of data set: protein-complex assay. The conditions noted are these: Compound concentration 10.0 uM.
The target in data set [14] is B2 bradykinin receptor (Homo sapiens) (UniProt P30411). The data set can be described thus: Bradykinin B2 receptor (h) CEREP ligand profiling. The conditions noted are these: Compound concentration 10.0 uM.
Data set [15] has as its target Cholecystokinin receptor type A (Homo sapiens) (UniProt P32238). The experiment in a line: CholecystokininA receptor (h) CEREP ligand profiling. The conditions noted are these: Compound concentration 10.0 uM.
The target of data set [16] is D(2) dopamine receptor (Homo sapiens) (UniProt P14416). The data set can be described thus: Dopamine D2 receptor (h) CEREP ligand profiling. The conditions noted are these: Compound concentration 10.0 uM.
Data set [17] addresses Galanin receptor (Homo sapiens) (UniProt O60755+O43603+P47211). The experiment in a line: Galanin receptor (h) CEREP ligand profiling. Type of data set: protein assay. The conditions noted are these: Compound concentration 10.0 uM.
Data set [18] addresses Interleukin-1 beta (Homo sapiens) (UniProt P01584). The data set can be described thus: Interleukin-1beta CEREP ligand profiling. The conditions noted are these: Compound concentration 10.0 uM.
Data set [19] concerns the target Tumor necrosis factor (Homo sapiens) (UniProt P01375). The experiment in a line: Tumor necrosis factor-alpha CEREP ligand profiling. The conditions noted are these: Compound concentration 10.0 uM.
Data set [20] deals with Histamine H2 receptor (Homo sapiens) (UniProt P25021). The experiment in a line: Histamine H2 receptor CEREP ligand profiling. The conditions noted are these: Compound concentration 10.0 uM.
Data set [21] deals with Muscarinic acetylcholine receptor M1 (Homo sapiens) (UniProt P11229). The experiment in a line: Muscarinic M1 receptors (h) CEREP ligand profiling. The conditions noted are these: Compound concentration 10.0 uM.
Data set [22] deals with Thromboxane A2 receptor (Homo sapiens) (UniProt P21731). The experiment in a line: Thromboxane A2/ prostaglandin H2 receptors CEREP ligand profiling. The conditions noted are these: Compound concentration 10.0 uM.
In data set [23] the target is 5-hydroxytryptamine receptor 1B (Homo sapiens) (UniProt P28222). The experiment in a line: 5-Hydroxytryptamine1B CEREP ligand profiling. The conditions noted are these: Compound concentration 10.0 uM.
Data set [24] concerns the target Sodium channel (site 1) (Homo sapiens, UniProt P35498+P35499+Q01118+Q14524+Q15858+Q99250+Q9NY46+Q9UI33+Q9UQD0+Q9Y5Y9). The experiment in a line: Na+ channel (site1) CEREP ligand profiling. Type of data set: protein assay. The conditions noted are these: compound concentration 10 uM.
Data set [25] has as its target Sodium channel (site 2) (Homo sapiens, UniProt P35498+P35499+Q01118+Q14524+Q15858+Q99250+Q9NY46+Q9UI33+Q9UQD0+Q9Y5Y9). The data set can be described thus: Na+ channel (site 2) CEREP ligand profiling. Type of data set: protein assay. The conditions noted are these: compound concentration 10 uM.
Data set [26] is described as follows: Cl- ionophore CEREP ligand profiling. The conditions noted are these: Compound concentration 10.0 uM.
Data set [27] has as its target GABA-A receptor; anion channel (Rattus norvegicus) (UniProt O09028+P15431+P18506+P18508+P19969+P20236+P23574+P23576+P28471+P28473+P30191+P62813+P63079+P63138+Q91ZM7+Q9ES14). The conditions noted are these: Compound concentration 10.0 uM.
The target in data set [28] is Muscarinic acetylcholine receptor M4 (Homo sapiens) (UniProt P08173). The conditions noted are these: Compound concentration 10.0 uM.

This is an account of results in ChEMBL document CHEMBL4507258 (2021).

Where only a bound is given, the exact number is not on record here.

Sequence of Alpha-2B adrenergic receptor (P18089 whole entry): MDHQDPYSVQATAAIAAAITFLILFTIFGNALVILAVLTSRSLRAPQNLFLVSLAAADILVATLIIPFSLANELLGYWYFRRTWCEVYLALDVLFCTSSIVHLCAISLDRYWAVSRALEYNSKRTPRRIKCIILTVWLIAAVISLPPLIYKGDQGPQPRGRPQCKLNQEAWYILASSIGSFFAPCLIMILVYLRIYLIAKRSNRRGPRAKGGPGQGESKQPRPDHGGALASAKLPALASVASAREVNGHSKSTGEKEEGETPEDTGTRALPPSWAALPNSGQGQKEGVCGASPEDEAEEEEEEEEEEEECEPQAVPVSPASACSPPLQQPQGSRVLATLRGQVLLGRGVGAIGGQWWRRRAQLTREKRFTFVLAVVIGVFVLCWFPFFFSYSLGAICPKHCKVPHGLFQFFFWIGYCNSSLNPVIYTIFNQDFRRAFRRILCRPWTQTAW
Sequence of Kappa-type opioid receptor (P41145 whole entry): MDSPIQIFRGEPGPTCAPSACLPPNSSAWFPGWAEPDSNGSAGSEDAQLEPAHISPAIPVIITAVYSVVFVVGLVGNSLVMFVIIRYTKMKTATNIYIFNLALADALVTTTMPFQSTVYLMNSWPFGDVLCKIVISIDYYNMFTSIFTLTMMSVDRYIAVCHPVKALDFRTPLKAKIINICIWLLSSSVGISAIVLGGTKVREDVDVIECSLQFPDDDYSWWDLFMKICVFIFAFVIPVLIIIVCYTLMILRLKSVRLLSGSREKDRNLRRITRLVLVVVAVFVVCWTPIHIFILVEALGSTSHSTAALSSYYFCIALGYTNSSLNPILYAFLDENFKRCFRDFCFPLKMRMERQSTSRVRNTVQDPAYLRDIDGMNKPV
Sequence of 5-hydroxytryptamine receptor 2B (P41595 whole entry): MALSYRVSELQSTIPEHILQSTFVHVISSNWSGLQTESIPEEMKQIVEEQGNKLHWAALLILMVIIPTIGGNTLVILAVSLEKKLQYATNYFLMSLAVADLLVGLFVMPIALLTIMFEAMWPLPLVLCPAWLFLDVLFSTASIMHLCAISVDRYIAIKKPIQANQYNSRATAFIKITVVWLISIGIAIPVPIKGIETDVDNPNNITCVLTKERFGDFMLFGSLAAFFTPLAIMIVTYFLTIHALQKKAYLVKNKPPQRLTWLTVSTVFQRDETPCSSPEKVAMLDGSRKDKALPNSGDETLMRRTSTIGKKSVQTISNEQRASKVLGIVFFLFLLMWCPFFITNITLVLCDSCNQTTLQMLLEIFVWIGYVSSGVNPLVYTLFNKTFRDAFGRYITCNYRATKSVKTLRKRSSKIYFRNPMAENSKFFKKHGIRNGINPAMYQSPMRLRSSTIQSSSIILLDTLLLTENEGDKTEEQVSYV
Sequence of Galanin receptor (Homo sapiens) (O43603 whole entry, looked up): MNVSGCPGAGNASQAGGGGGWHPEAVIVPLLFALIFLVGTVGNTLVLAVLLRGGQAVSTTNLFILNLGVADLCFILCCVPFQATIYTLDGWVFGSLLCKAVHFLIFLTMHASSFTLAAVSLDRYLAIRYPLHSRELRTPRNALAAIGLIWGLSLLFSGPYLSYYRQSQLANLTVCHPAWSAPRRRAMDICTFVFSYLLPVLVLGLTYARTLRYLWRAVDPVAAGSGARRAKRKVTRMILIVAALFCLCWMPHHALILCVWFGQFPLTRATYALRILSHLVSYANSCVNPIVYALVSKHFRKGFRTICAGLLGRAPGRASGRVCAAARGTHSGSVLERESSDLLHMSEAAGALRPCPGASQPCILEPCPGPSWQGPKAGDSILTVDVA
Sequence of Galanin receptor (Homo sapiens) (O60755 whole entry, looked up): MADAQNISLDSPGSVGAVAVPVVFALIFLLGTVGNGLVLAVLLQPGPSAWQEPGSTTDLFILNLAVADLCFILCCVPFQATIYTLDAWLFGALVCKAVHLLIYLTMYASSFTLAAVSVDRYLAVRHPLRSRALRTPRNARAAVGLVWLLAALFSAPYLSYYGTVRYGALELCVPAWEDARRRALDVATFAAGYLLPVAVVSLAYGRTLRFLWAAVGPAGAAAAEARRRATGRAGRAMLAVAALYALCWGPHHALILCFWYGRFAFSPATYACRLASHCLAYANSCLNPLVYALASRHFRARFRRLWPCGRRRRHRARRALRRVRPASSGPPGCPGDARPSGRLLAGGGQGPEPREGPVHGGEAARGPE
Sequence of Galanin receptor (Homo sapiens) (P47211 whole entry, looked up): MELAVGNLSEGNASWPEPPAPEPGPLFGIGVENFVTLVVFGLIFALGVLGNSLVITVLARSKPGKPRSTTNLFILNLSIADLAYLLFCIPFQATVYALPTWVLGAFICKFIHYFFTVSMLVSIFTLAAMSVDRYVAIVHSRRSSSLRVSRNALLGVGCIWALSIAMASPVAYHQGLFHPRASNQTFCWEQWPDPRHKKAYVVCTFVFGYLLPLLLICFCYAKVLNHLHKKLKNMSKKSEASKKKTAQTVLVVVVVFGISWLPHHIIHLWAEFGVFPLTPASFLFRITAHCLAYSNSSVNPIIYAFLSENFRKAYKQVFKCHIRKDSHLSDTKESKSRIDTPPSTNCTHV
Sequence of Cholecystokinin receptor type A (Homo sapiens) (P32238 whole entry): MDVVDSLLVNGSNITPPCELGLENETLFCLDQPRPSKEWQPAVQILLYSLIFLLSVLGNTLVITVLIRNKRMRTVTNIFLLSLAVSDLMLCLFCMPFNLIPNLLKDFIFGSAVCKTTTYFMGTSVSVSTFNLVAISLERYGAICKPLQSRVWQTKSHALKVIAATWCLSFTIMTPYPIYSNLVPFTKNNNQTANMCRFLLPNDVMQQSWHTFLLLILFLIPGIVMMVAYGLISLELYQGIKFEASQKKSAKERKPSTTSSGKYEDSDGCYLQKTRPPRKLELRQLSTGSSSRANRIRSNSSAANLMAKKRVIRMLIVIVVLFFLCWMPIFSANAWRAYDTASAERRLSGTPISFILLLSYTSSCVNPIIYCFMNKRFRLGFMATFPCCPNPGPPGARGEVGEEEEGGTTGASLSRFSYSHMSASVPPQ
Sequence of Thromboxane A2 receptor (Homo sapiens) (P21731 whole entry): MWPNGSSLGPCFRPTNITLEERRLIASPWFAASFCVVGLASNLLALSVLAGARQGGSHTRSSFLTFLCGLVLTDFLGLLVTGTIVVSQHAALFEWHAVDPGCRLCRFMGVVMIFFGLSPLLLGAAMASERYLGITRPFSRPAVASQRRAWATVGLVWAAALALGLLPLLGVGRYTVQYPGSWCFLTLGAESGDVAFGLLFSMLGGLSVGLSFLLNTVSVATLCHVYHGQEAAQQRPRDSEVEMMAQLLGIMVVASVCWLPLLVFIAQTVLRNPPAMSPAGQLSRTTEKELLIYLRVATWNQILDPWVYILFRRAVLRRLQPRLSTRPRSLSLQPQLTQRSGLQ
Sequence of Interleukin-1 beta (Homo sapiens) (P01584 117-269 limits assumed): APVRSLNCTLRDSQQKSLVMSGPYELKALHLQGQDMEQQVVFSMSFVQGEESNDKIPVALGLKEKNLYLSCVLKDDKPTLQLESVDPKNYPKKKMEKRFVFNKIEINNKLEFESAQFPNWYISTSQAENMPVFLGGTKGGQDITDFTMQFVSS
Sequence of Beta-1 adrenergic receptor (Homo sapiens) (P08588 whole entry, looked up): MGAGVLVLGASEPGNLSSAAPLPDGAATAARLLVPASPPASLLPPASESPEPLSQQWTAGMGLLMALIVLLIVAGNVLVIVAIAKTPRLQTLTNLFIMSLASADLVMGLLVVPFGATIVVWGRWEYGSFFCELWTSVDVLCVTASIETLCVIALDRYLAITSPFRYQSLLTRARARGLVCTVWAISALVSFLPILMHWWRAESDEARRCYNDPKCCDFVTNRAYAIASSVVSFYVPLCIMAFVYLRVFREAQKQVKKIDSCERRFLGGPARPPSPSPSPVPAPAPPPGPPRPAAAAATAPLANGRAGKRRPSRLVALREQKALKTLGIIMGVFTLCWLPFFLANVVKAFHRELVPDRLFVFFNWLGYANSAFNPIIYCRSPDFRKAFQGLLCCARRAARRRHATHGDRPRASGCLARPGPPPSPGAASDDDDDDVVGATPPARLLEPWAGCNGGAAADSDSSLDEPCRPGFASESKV
Sequence of Adenosine receptor A1 (Homo sapiens) (P30542 whole entry): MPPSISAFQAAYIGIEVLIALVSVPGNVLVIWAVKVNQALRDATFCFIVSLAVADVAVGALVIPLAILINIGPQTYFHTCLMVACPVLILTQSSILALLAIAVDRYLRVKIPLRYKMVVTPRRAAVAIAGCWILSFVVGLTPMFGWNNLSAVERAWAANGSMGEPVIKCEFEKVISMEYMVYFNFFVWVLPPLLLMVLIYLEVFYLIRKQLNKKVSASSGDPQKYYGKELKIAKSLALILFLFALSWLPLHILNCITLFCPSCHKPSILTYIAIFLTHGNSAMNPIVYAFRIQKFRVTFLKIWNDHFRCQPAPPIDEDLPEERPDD
Sequence of Histamine H2 receptor (Homo sapiens) (P25021 whole entry): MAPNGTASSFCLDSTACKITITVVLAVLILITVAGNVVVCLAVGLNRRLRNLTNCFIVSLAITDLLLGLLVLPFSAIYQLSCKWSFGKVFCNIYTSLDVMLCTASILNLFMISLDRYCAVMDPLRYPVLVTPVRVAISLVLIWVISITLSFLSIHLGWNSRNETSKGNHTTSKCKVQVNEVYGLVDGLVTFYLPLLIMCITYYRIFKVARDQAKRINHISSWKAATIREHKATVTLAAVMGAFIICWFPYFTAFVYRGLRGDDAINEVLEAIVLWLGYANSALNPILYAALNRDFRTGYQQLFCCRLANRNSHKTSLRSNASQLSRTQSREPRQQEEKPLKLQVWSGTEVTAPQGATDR
Sequence of Vasopressin V1a receptor (Homo sapiens) (P37288 whole entry, looked up): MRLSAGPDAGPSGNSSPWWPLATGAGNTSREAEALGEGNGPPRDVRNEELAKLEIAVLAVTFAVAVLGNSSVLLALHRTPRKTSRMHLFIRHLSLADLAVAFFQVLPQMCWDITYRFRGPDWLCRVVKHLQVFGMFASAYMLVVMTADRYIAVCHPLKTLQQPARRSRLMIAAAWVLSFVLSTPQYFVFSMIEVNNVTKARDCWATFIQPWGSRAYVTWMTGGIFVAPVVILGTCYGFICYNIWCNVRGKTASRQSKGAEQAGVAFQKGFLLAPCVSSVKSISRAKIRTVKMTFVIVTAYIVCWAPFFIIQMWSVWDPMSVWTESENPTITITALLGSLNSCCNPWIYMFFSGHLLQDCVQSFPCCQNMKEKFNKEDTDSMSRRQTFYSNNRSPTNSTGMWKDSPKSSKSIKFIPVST

For the molecule `CCCCN(CCCC)C(=O)CN1C[C@@H](c2cc(OC)c3c(c2)OCO3)[C@H](C(=O)O)[C@H]1CC(C)(C)CCC` [A-545], the Ki in data set [1] (read-out: Ki) was 6.52 µM; in data set [1] (read-out: pKi (converted)), 5.82 µM; in data set [2] (read-out: Ki), 2.78 µM; in data set [2] (read-out: pKi (converted)), 2.82 µM; in data set [3] (read-out: Ki), 4.64 µM; in data set [3] (read-out: pKi (converted)) it was 4.17 µM. Further, in [4], the Ki came out at 0.298 µM. Further, the inhibition (in general, the relative decrease from the control value, in per cent) in data set [5] is -3.72%; in [6] it was 56.1%.

In the case of `CCCCN(CCCC)C(=O)CN1C[C@H](c2cc(OC)c3c(c2)OCO3)[C@@H](C(=O)O)[C@@H]1CC(C)(C)CCC` [ABT-546], the Kd (usually the concentration at which binding is half-saturated) in data set [7] is listed as > 10 µM (not active). Also, the inhibition in [8] is 23%; in data set [9], below 10%; in data set [10], below 10%; in [11] it was below 10%; in data set [12] it was below 10%; in [13], below 10%. Further, the inhibition in [14], in data set [15], in data set [16], in [17], in [18] and in data set [19] was below 10% in each case. Further, the inhibition was below 10% in [20]; below 10% in data set [21]; 16% in data set [22]; below 10% in data set [23]; 61% in data set [26]; -5.72% in data set [27]. Also, the inhibition in data set [28] was 8.5%. Further, the inhibition at 10 µM is given as 22% (not active) in [24] and < 10% (not active) in [25].
